Data as given in PMC7515716 (2020).

Assays:
[1] = system: xpt/pbuE*6U guanine riboswitch (RNA, riboswitch) AAAUUAAAUAGCUAUUAUCACGAUUUUUAUAAUCGCGUGGAUAUGGCACGCAAGUUUCUACCGGGCACCGUAAAUGUCCGACUAAAAAUCCUGAUUACAAAAUUUGUUUAUGACAUUUUUUGUAAUCAGGAUUUUUUAUUUAUCAAAACAUUUAAGUAAAGGAGUUUGUUAUGUUUUUUUUGGCCAGUGAAUUCGAGCUCGGUACCCGGGGAUCCUCUAGAAAUAUGGAUUACUUGGUAGAACAGCAAUCUACUCGACCUGCAGGCAUGCAAGCUUGGCGUAAUCAUGGUCAUAGCUGUUUCCUGUGUUUAUCCGCUCACAAUUCCACACAACAUACGAGCCGGAAGCAUAAAG; assay: SPRINT: multiple-turnover transcription read-through, Cas13a fluorescence; conditions: 70 mM Na+ (NaCl), 2.5 mM Mg2+
[2] = system: ribD/pbuE*7U FMN riboswitch (RNA, riboswitch) AAAUUAAAUAGCUAUUAUCACGAUUUUUCGGGGCAGGGUGGAAAUCCCGACCGGCGGUAGUAAAGCACAUUUGCUUUAGAGCCCGUGACCCGUGUGCAUAAGCACGCGGUGGAUUCAGUUUAAGCUGAAGCCGACAGUGAAAGUCUGGAUGGGAGAAAAAUCCUGAUUACAAAAUUUGUUUAUGACAUUUUUUGUAAUCAGGAUUUUUUUAUUUAUCAAAACAUUUAAGUAAAGGAGUUUGUUAUGUUUUUUUUGGCCAGUGAAUUCGAGCUCGGUACCCGGGGAUCCUCUAGAAAUAUGGAUUACUUGGUAGAACAGCAAUCUACUCGACCUGCAGGCAUGCAAGCUUGGCGUAAUCAUGGUCAUAGCUGUUUCCUGUGUUUAUCCGCUCACAAUUCCACACAACAUACGAGCCGGAAGCAUAAAG; assay: as above; conditions: 70 mM Na+ (NaCl), 10 mM Mg2+; SPRINT buffer, 37 °C; low-affinity response

| Structure (SMILES) | binding [1] | binding [2] |
| --- | --- | --- |
| CNc1nc2[nH]cnc2c(=O)[nH]1 | weak |  |
| Cc1cc2nc3c(=O)[nH]c(=O)nc-3n(C[C@H](O)[C@H](O)[C@H](O)COP(=O)(O)OP(=O)(O)OC[C@H]3O[C@@H](n4cnc5c(N)ncnc54)[C@H](O)[C@@H]3O)c2cc1C |  | weak |
